Measurements taken from patent publication US10022394B2, “Antiinfective composition” (priority 2011, dated 2018).

Tested on: viruses
Assay: in vitro virucidal action
Conditions: as the degree of hydroxymethylation increases

hydroxymethyl-hyaluronic acid was tested. Which virucidal action did it give?
The virucidal action was “increased”.
